pIC50: −log10 of the molar value.
How the values were obtained:
[1] = Inhibition of Mycobacterium tuberculosis PTPB expressed in Escherichia coli BL21/DE3 cells using pNPP as substrate after 5 mins by spectrophotometry
BL21-DE3 = experiment: Potency index, ratio of SPAA IC50 to compound IC50 for Mycobacterium tuberculosis PTPB expressed in Escherichia coli BL21/DE3 cells
[2] = Inhibition of Mycobacterium tuberculosis PTPB

## O=C(NCCc1ccc(Cl)cc1Cl)C(c1ccccc1)S(=O)(=O)O (racemic)
[1]
  pIC50: 6.54

## CCCNC(=O)C(c1ccccc1)S(=O)(=O)O (racemic)
[1]
  pIC50: 4.80
BL21-DE3
  Ratio IC50: 11

## O=C(Nc1cccc2ccccc12)C(c1ccccc1)S(=O)(=O)O (racemic)
[1]
  pIC50: 6.14

## O=C(Nc1ccc(-c2ccccc2)cc1)C(c1ccccc1)S(=O)(=O)O (racemic)
[1]
  pIC50: 6.71

## O=C(C(c1ccccc1)S(=O)(=O)O)N1CCCCC1 (racemic)
[1]
  pIC50: 6.02
BL21-DE3
  Ratio IC50: 180

## O=C(C(c1ccccc1)S(=O)(=O)O)N1CCC(Cc2ccccc2)CC1 (racemic)
[1]
  pIC50: 7.40

## NC(=O)c1cc[n+](CC2=C(C(=O)O)N3C(=O)[C@@H](NC(=O)[C@@H](c4ccccc4)S(=O)(=O)[O-])[C@H]3SC2)cc1 [CEFSULODIN SODIUM]
[2]
  pIC50: 4.80
